According to US10781224B2, “Bis(oxymethyl)phosphinic acid and biogenic metal salts thereof as regulators of plant growth and development” (priority 2016, dated 2020):

System: corn (Krasnodar 385 MV variety)
Assay: Corn seed treatment with BHMPA salts: germinating power
Format: in vivo
How it was run: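 Seeds (50 per Petri dish on two layers of filter paper) soaked 1 h in BHMPA or its Ca, Mg, Na, Co, Mn, Cu or Zn salts at 1·10^−6-1·10^−12%, with water controls. Germination energy read on day 4, germination on day 8 (wheat) or day 7 (rice, corn), as % means of four replicates. Germinating power taken as root and sprout length plus wet and dry mass per 100 seedlings.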

[1] = corn seeds, solution concentration 1 · 10^−6%, copper salt of BHMPA
[2] = corn seeds, solution concentration 1 · 10^−7%, copper salt of BHMPA
[3] = corn seeds, solution concentration 1 · 10^−8%, copper salt of BHMPA
[4] = corn seeds, solution concentration 1 · 10^−9%, copper salt of BHMPA
[5] = corn seeds, solution concentration 1 · 10^−10%, copper salt of BHMPA
[6] = corn seeds, solution concentration 1 · 10^−11%, copper salt of BHMPA
[7] = corn seeds, solution concentration 1 · 10^−12%, copper salt of BHMPA

**Q.** Which “optimum concentration for treating corn seeds before sowing” value (corn) does the source give for Copper BHMPA Salt [Cu-salt] here?
**A.** 1·10^−8%

**Q.** What about the “Length, root” value [1] of the same substance?
**A.** 5.2 cm

**Q.** And the “Length, root, + % to control” value [1]?
**A.** 8%

**Q.** What about the “Length, sprout” value [1] of the same substance?
**A.** 4.2 cm

**Q.** And the “Length, sprout, + % to control” value [1]?
**A.** 20%

**Q.** What about the “Mass, dry, root” value [1] of the same substance?
**A.** 1.27 g/100 plantlings

**Q.** And the “Mass, dry, root, + % to control” value [1]?
**A.** 7%

**Q.** And the “Mass, dry, sprout” value [1]?
**A.** 1.01 g/100 plantlings

**Q.** What about the “Mass, dry, sprout, + % to control” value [1] of the same substance?
**A.** 2%

**Q.** What about the “Mass, wet, root” value [1] of the same substance?
**A.** 8.99 g/100 plantlings

**Q.** And the “Mass, wet, root, + % to control” value [1]?
**A.** 11%

**Q.** What about the “Mass, wet, sprout” value [1] of the same substance?
**A.** 7.21 g/100 plantlings

**Q.** And the “Mass, wet, sprout, + % to control” value [1]?
**A.** 15%

**Q.** What about the “Length, root” value [2] of the same substance?
**A.** 5.4 cm

**Q.** What about the “Length, root, + % to control” value [2] of the same substance?
**A.** 12.5%

**Q.** What about the “Length, sprout” value [2] of the same substance?
**A.** 4.6 cm

**Q.** And the “Length, sprout, + % to control” value [2]?
**A.** 31%

**Q.** What about the “Mass, dry, root” value [2] of the same substance?
**A.** 1.38 g/100 plantlings

**Q.** And the “Mass, dry, root, + % to control” value [2]?
**A.** 16%

**Q.** And the “Mass, dry, sprout” value [2]?
**A.** 1.09 g/100 plantlings

**Q.** And the “Mass, dry, sprout, + % to control” value [2]?
**A.** 10%

**Q.** And the “Mass, wet, root” value [2]?
**A.** 9.81 g/100 plantlings

**Q.** What about the “Mass, wet, root, + % to control” value [2] of the same substance?
**A.** 21%

**Q.** What about the “Mass, wet, sprout” value [2] of the same substance?
**A.** 7.94 g/100 plantlings

**Q.** What about the “Mass, wet, sprout, + % to control” value [2] of the same substance?
**A.** 27%

**Q.** What about the “Length, root” value [3] of the same substance?
**A.** 5.6 cm

**Q.** What about the “Length, sprout” value [3] of the same substance?
**A.** 4.8 cm

**Q.** And the “Length, sprout, + % to control” value [3]?
**A.** 37%

**Q.** What about the “Mass, dry, root” value [3] of the same substance?
**A.** 1.53 g/100 plantlings

**Q.** And the “Mass, dry, root, + % to control” value [3]?
**A.** 28.5%

**Q.** What about the “Mass, dry, sprout” value [3] of the same substance?
**A.** 1.17 g/100 plantlings

**Q.** What about the “Mass, dry, sprout, + % to control” value [3] of the same substance?
**A.** 18%

**Q.** What about the “Mass, wet, root” value [3] of the same substance?
**A.** 10.67 g/100 plantlings

**Q.** And the “Mass, wet, root, + % to control” value [3]?
**A.** 31%

**Q.** And the “Mass, wet, sprout” value [3]?
**A.** 8.82 g/100 plantlings

**Q.** And the “Mass, wet, sprout, + % to control” value [3]?
**A.** 41%

**Q.** And the “Length, root” value [4]?
**A.** 5.3 cm

**Q.** What about the “Length, root, + % to control” value [4] of the same substance?
**A.** 10%

**Q.** What about the “Length, sprout” value [4] of the same substance?
**A.** 4.7 cm

**Q.** And the “Length, sprout, + % to control” value [4]?
**A.** 34%

**Q.** What about the “Mass, dry, root” value [4] of the same substance?
**A.** 1.50 g/100 plantlings

**Q.** And the “Mass, dry, root, + % to control” value [4]?
**A.** 26%

**Q.** And the “Mass, dry, sprout” value [4]?
**A.** 1.13 g/100 plantlings

**Q.** And the “Mass, dry, sprout, + % to control” value [4]?
**A.** 14%

**Q.** And the “Mass, wet, root” value [4]?
**A.** 9.58 g/100 plantlings

**Q.** And the “Mass, wet, root, + % to control” value [4]?
**A.** 18%

**Q.** And the “Mass, wet, sprout” value [4]?
**A.** 8.75 g/100 plantlings

**Q.** What about the “Mass, wet, sprout, + % to control” value [4] of the same substance?
**A.** 40%

**Q.** And the “Length, root” value [5]?
**A.** 5.1 cm

**Q.** What about the “Length, root, + % to control” value [5] of the same substance?
**A.** 6%

**Q.** And the “Length, sprout” value [5]?
**A.** 4.4 cm

**Q.** And the “Length, sprout, + % to control” value [5]?
**A.** 26%

**Q.** And the “Mass, dry, root” value [5]?
**A.** 1.35 g/100 plantlings

**Q.** What about the “Mass, dry, root, + % to control” value [5] of the same substance?
**A.** 13%

**Q.** And the “Mass, dry, sprout” value [5]?
**A.** 1.07 g/100 plantlings

**Q.** What about the “Mass, dry, sprout, + % to control” value [5] of the same substance?
**A.** 8%

**Q.** And the “Mass, wet, root” value [5]?
**A.** 9.13 g/100 plantlings

**Q.** And the “Mass, wet, root, + % to control” value [5]?
**A.** 12%

**Q.** And the “Mass, wet, sprout” value [5]?
**A.** 7.88 g/100 plantlings

**Q.** What about the “Mass, wet, sprout, + % to control” value [5] of the same substance?
**A.** 26%

**Q.** What about the “Length, root” value [6] of the same substance?
**A.** 5.0 cm

**Q.** What about the “Length, root, + % to control” value [6] of the same substance?
**A.** 4%

**Q.** What about the “Length, sprout” value [6] of the same substance?
**A.** 3.9 cm

**Q.** What about the “Length, sprout, + % to control” value [6] of the same substance?
**A.** 11%

**Q.** And the “Mass, dry, root” value [6]?
**A.** 1.25 g/100 plantlings

**Q.** And the “Mass, dry, root, + % to control” value [6]?
**A.** 5%

**Q.** What about the “Mass, dry, sprout” value [6] of the same substance?
**A.** 0.97 g/100 plantlings

**Q.** What about the “Mass, dry, sprout, + % to control” value [6] of the same substance?
**A.** −2%

**Q.** What about the “Mass, wet, root” value [6] of the same substance?
**A.** 8.61 g/100 plantlings

**Q.** And the “Mass, wet, root, + % to control” value [6]?
**A.** 6%

**Q.** What about the “Mass, wet, sprout” value [6] of the same substance?
**A.** 6.79 g/100 plantlings

**Q.** And the “Mass, wet, sprout, + % to control” value [6]?
**A.** 9%

**Q.** What about the “Length, root” value [7] of the same substance?
**A.** 4.8 cm

**Q.** And the “Length, root, + % to control” value [7]?
**A.** 0%

**Q.** What about the “Length, sprout” value [7] of the same substance?
**A.** 3.7 cm

**Q.** And the “Length, sprout, + % to control” value [7]?
**A.** 6%

**Q.** What about the “Mass, dry, root” value [7] of the same substance?
**A.** 1.21 g/100 plantlings

**Q.** And the “Mass, dry, root, + % to control” value [7]?
**A.** 2%

**Q.** What about the “Mass, dry, sprout” value [7] of the same substance?
**A.** 0.92 g/100 plantlings

**Q.** What about the “Mass, dry, sprout, + % to control” value [7] of the same substance?
**A.** −7%

**Q.** What about the “Mass, wet, root” value [7] of the same substance?
**A.** 8.37 g/100 plantlings

**Q.** And the “Mass, wet, root, + % to control” value [7]?
**A.** 3%

**Q.** What about the “Mass, wet, sprout” value [7] of the same substance?
**A.** 6.35 g/100 plantlings

**Q.** And the “Mass, wet, sprout, + % to control” value [7]?
**A.** 2%

**Q.** And the “Length, root, + % to control” value (corn, 1·10^−8% solution)?
**A.** 16%

**Q.** And the “Length, sprout, + % to control” value (corn, 1·10^−8% solution)?
**A.** 37%

**Q.** What about the “Mass, dry, root, + % to control” value (corn, 1·10^−8% solution) of the same substance?
**A.** 28.5%

**Q.** And the “Mass, dry, sprout, + % to control” value (corn, 1·10^−8% solution)?
**A.** 18%

**Q.** And the “Mass, wet, root, + % to control” value (corn, 1·10^−8% solution)?
**A.** 31%

**Q.** What about the “Mass, wet, sprout, + % to control” value (corn, 1·10^−8% solution) of the same substance?
**A.** 41%
